In patent publication US20260102407A1, “TREATMENT METHODS” (priority 2020, published 2026):

Assays:
CD31 = assay: Matrigel plug assay, CD31 staining; assay type: in vivo; settings: C57BL/6 mice; 2.5 mg/mouse in plug with VEGF-A165 and heparin; 7 days
Experimental: Matrigel plug assay. Matrigel (500 μl) containing VEGF-A165 (100 ng/ml), heparin (10U) and BT2 or BT3 (2.5 mg/mouse) or its vehicle (saline containing 0.01% DMSO and 0.5% Tween 80) was injected subcutaneously into the left flanks of male 8 week-old C57BL/6 mice. After 7d the mice were sacrificed by CO2 asphyxiation and the plugs carefully removed. Formalin-fixed paraffin embedded sections were prepared from Matrigel plugs for immunohistological assessment. Heat-induced epitope retrieval was applied to all deparaffinized sections (4 μm Superfrost slides) in citrate buffer, pH 6 for 5 min at 110° C. Immunostaining for all groups with a given antibody was performed simultaneously and development time was identical. […]
Slides were scanned using an Aperio ScanScope XT slide scanner (Leica Biosystems, Mt Waverley, Vic Australia) and images captured using ImageScope software (Leica Biosystems). Positive intraplug staining was assessed using Image-Pro Plus software (Cybernetics, Bethesda, MD) in 5-12 randomly selected fields of view for each plug photographed under 10× (CD31), 20× (VCAM-1) and 40× (FosB) objectives and expressed as integrated optical density (IOD, the product of calibrated intensity (optical density) and area, i.e. IOD=intensity (mean)×area) (Media Cybernetics) (Liu, H., et al., Sci Rep 6, 21319 (2016)). […]

HMEC-1 = assay: Endothelial proliferation assay using the xCELLigence system; assay type: cell-based, human; settings: for serum-inducible endothelial proliferation (xCELLigence cell index): HMEC-1, 5% FBS, 0.2-1 μM, 79 h
Experimental: Endothelial proliferation assay using the xCELLigence system. HMEC-1 proliferation was evaluated using the xCELLigence System (Roche, Castle Hill). Briefly, HMEC-1 (5×10^3 cells/well) were seeded in a 96-well E-plate and inserted into the xCELLigence RTCA station (Roche). Cells were serum-deprived for 24 h in MCDB131 medium which contained 10 ng/ml EGF (Sigma-Aldrich) and 1 μg/ml hydrocortisone (Sigma-Aldrich) then treated with compound (0.2-1 μM) in medium containing 5% FBS, 10 ng/ml EGF (Sigma-Aldrich) and 1 μg/ml hydrocortisone (Sigma-Aldrich). Cell growth was monitored automatically every 15 min by xCELLigence system. Cell index (CI) represents a quantitative measure of each well cell growth. In this system, CI a unitless parameter that reports impedance of electron flow caused by adherent cells.

HY79b pigmented rabbits = assay: Rabbit retinal vascular hyperpermeability model induced by rhVEGF-A165; assay type: in vivo
Experimental: Rabbit retinal vascular hyperpermeability model. Male HY79b pigmented rabbits (8-12 week-old) were anesthetized by an intramuscular injection of Rompun® (xylazine)/Imalgene® (ketamine). Compound (600 μg BT2, BT3 or saline vehicle containing 0.5% Tween 80 and 10% DMSO vehicle in 100 μl) was injected into the right eye 5d prior to rhVEGF-A165 induction. Injections were performed on anesthetized animals under an operating microscope using a 250 μl Hamilton syringe (fitted with 30G needle). Retinal vascular permeability was induced by a single 50 μl IVT injection of 500 ng rhVEGF-A165 (diluted in PBS with carrier protein) into the right eye. Forty-seven hours (+/−3 h) after induction, sodium fluorescein (10% in saline, 50 mg/kg) was injected into the marginal ear vein. One hour after fluorescein injection, animals were anaesthetized and pupils were dilated by instillation of one drop of 0.5% tropicamide. Ocular fluorescence in both eyes was measured with a FM-2 Fluorotron Master ocular fluorophotometer. Animals were euthanized by injection of pentobarbital.

FosB/ΔFosB = assay: Western blot, serum-inducible FosB/ΔFosB expression in HMEC-1; assay type: cell-based, human; settings: 30 μM compound, 10% FBS 1 h
Experimental: Western blot analysis with extracts of cells treated with serum. HMEC-1 (80-90% confluency) were arrested in serum-free MCDB131 medium without EGF or hydrocortisone for 20 h. Cells were treated with 30 μM compound in serum-free MCDB131 medium for 4 h, and the medium was changed to complete medium (with 10% FBS with EGF and hydrocortisone) with 30 μM compound for 1 h. Total protein was harvested as previously described in radioimmunoprecipitation (RIPA) lysis buffer with protease inhibitors (Li, Y., et al., Int J Cardiol 220, 185-191 (2016)). Proteins were resolved on 4-20% (w/v) sodium dodecyl sulfate (SDS)-polyacrylamide gradient gels (Bio-Rad Mini-PROTEAN TGX) and transferred to Immobilon-P PVDF membranes (Millipore, USA). Membranes were blocked with 5% skim milk and incubated with rabbit monoclonal FosB (cat. 2251, 1:1000, Cell Signaling, USA), rabbit monoclonal c-Fos antibodies (cat. 2250, 1:1000, Cell Signaling, USA) at 4° C. overnight or mouse monoclonal […] antibodies (cat. A5316, 1:30000, Sigma-Aldrich) at 22° C. for 15 min then incubated with a horseradish peroxidase conjugated secondary goat anti-rabbit (cat. P0448, 1:1000, DAKO Cytomation, Denmark) or goat anti-mouse (cat. P0447, 1:1000, DAKO Cytomation, Denmark) antibodies for 1 h. Chemiluminescence was detected using the Western Lightning Chemiluminescence system (PerkinElmer, USA) and ImageQuant™ LAS 4000 biomolecular imager (GE Healthcare Life Sciences, USA). Band intensity in images generated with the LAS 4000 on automatic exposure with sensitivity/resolution setting high was quantified using NIH ImageJ.

Row | Compound | new blood vessel formation (CD31 staining) in Matrigel plugs (CD31) | serum-inducible endothelial proliferation (xCELLigence cell index) (HMEC-1) | biological activity of formulation after autoclaving (HMEC-1; autoclaved (121° C., 15 psi, 20 min), 4 months storage at 22° C., 0.4, 0.8 μM) | biological efficacy of stored formulation (HMEC-1; heat-treated or not, storage up to 16 months) | inhibition of serum-inducible endothelial proliferation by stored formulation (HMEC-1; with or without 100° C. for 10 min, 6 weeks storage, 0.4, 0.8 μM) | inhibition of retinal leakage induced by rhVEGF-A165 (HY79b pigmented rabbits; single IVT 600 μg, 5 d before induction, after 2 days) | serum-inducible FosB/ΔFosB expression (Western blot) (FosB/ΔFosB) | effect on retinal vascular leakage induced by rhVEGF-A165 (HY79b pigmented rabbits; IVT 600 μg, fluorescence ratio R/L)
1 | CCOC(=O)Nc1ccc2c(c1)C(=O)N(CC)c1ccccc1O2 [BT2, (10-ethyl-11-oxo-10,11-dihydro-dibenzo[b,f][1,4]oxazepin-2-yl)-carbamic acid ethyl ester] | suppressed new blood vessel formation | inhibited serum-inducible proliferation at concentrations in a dose-dependent manner | biologically active | no loss in biological efficacy | retained its ability to inhibit serum-inducible endothelial proliferation | ~50% | blocked the inducible expression of FosB and ΔFosB | 
2 | CCN1C(=O)c2cc(N)ccc2Oc2ccccc21 [BT3, 2-amino-10-ethyldibenzo[b,f][1,4]oxazepin-11 (10H)-one] | no effect | no inhibitory effect |  |  |  |  | no inhibition | inactive
